Data from ChEMBL document CHEMBL5608200, “Design, synthesis, and evaluation of antitumor activity of 2-arylmethoxy-4-(2-fluoromethyl-biphenyl-3-ylmethoxy) benzylamine derivatives as PD-1/PD-l1 inhibitors” (Eur J Med Chem, 2024).
Active and inactive are the calls of the source. The calls are words filed in the database; no cut-off is given here.

Assays:
HCC827 [1] = assay: Induction of T-cell mediated apoptosis in human HCC827 cells cocultured with PMA-stimulated Jurkat T cells assessed as mortality rate at 4 uM incubated for 48 hrs by CCK-8 assay; format: functional
HCC827 [2] = assay: Induction of T-cell mediated apoptosis in human HCC827 cells cocultured with PMA-stimulated Jurkat T cells assessed as mortality rate at 8 uM incubated for 48 hrs by CCK-8 assay; format: functional
HCC827 [3] = assay: Induction of T-cell mediated apoptosis in human HCC827 cells cocultured with PMA-stimulated Jurkat T cells assessed as mortality rate at 16 uM incubated for 48 hrs by CCK-8 assay; format: functional
HCC827 [4] = assay: Induction of T-cell mediated apoptosis in human HCC827 cells cocultured with PMA-stimulated Jurkat T cells assessed as mortality rate at 32 uM incubated for 48 hrs by CCK-8 assay; format: functional
MDA-MB-231 [5] = assay: Induction of T-cell mediated apoptosis in human MDA-MB-231 cells cocultured with PMA-stimulated Jurkat T cells assessed as mortality rate at 4 uM incubated for 48 hrs by CCK-8 assay; format: functional
MDA-MB-231 [6] = assay: Induction of T-cell mediated apoptosis in human MDA-MB-231 cells cocultured with PMA-stimulated Jurkat T cells assessed as mortality rate at 8 uM incubated for 48 hrs by CCK-8 assay; format: functional
MDA-MB-231 [7] = assay: Induction of T-cell mediated apoptosis in human MDA-MB-231 cells cocultured with PMA-stimulated Jurkat T cells assessed as mortality rate at 16 uM incubated for 48 hrs by CCK-8 assay; format: functional
MDA-MB-231 [8] = assay: Induction of T-cell mediated apoptosis in human MDA-MB-231 cells cocultured with PMA-stimulated Jurkat T cells assessed as mortality rate at 32 uM incubated for 48 hrs by CCK-8 assay; format: functional
A549 [9] = assay: Induction of T-cell mediated apoptosis in human A549 cells cocultured with PMA-stimulated Jurkat T cells assessed as mortality rate at 1 to 32 uM incubated for 48 hrs by CCK-8 assay; format: functional, cell-based; conditions: dose 1-32 µM
HCC827 [10] = assay: Cytotoxicity against human HCC827 cells at 1 to 32 uM incubated for 48 hrs by CCK-8 assay; format: functional, cell-based; conditions: dose 1-32 µM
A549 [11] = assay: Cytotoxicity against human A549 cells at 1 to 32 uM incubated for 48 hrs by CCK-8 assay; format: functional, cell-based; conditions: dose 1-32 µM
Jurkat = assay: Cytotoxicity against human Jurkat T cells at 1 to 32 uM incubated for 48 hrs by CCK-8 assay; format: functional, cell-based; conditions: dose 1-32 µM
[12] = AUC(0 to t) in Sprague-Dawley rat at 10 mg/kg, iv measured upto 48 hrs by LC-MS/MS analysis; format: ADME, organism-based; conditions: in vivo
[13] = AUC(0 to infinity) in Sprague-Dawley rat at 10 mg/kg, iv measured upto 48 hrs by LC-MS/MS analysis; format: ADME, organism-based; conditions: in vivo
[14] = Tmax in Sprague-Dawley rat at 10 mg/kg, iv measured upto 48 hrs by LC-MS/MS analysis; format: ADME, organism-based; conditions: in vivo
[15] = Apparent volume of distribution in Sprague-Dawley rat at 10 mg/kg, iv measured upto 48 hrs by LC-MS/MS analysis; format: ADME, organism-based; conditions: in vivo
[16] = AUC(0 to t) in Sprague-Dawley rat at 50 mg/kg, IG measured upto 48 hrs by LC-MS/MS analysis; format: ADME, organism-based; conditions: in vivo, po
[17] = AUC(0 to infinity) in Sprague-Dawley rat at 50 mg/kg, IG measured upto 48 hrs by LC-MS/MS analysis; format: ADME, organism-based; conditions: in vivo, po
[18] = Cmax in Sprague-Dawley rat at 50 mg/kg, IG measured upto 48 hrs by LC-MS/MS analysis; format: ADME, organism-based; conditions: in vivo, po
[19] = Tmax in Sprague-Dawley rat at 50 mg/kg, IG measured upto 48 hrs by LC-MS/MS analysis; format: ADME, organism-based; conditions: in vivo, po
[20] = Half-life in Sprague-Dawley rat at 50 mg/kg, IG measured upto 48 hrs by LC-MS/MS analysis; format: ADME, organism-based; conditions: in vivo, po
[21] = Apparent volume of distribution in Sprague-Dawley rat at 50 mg/kg, IG measured upto 48 hrs by LC-MS/MS analysis; format: ADME, organism-based; conditions: in vivo, po
[22] = Oral bioavilability in Sprague-Dawley rat at 50 mg/kg measured upto 48 hrs by LC-MS/MS analysis; format: ADME, organism-based; conditions: in vivo
MC-38 [23] = assay: Antitumor activity against mouse MC38 cells expressing hPD-L1 implanted in PD-1/PD-L1 humanized C57BL/6 mouse assessed as tumor growth inhibition at 50 mg/kg, IG QD administered for 15 days and measured every day by caliper method; format: functional; conditions: MC-38, po, 360 h, time 15 day, read-out: TGI
[24] = Toxicity in PD-1/PD-L1 humanized C57BL/6 mouse implanted with mouse MC38 cells expressing hPD-L1 assessed as weight loss at 50 mg/kg, IG QD administered for 15 days; format: organism-based, MC-38; conditions: in vivo, po, 360 h, time 15 day
MC-38 [25] = assay: Antitumor activity against mouse MC38 cells expressing hPD-L1 implanted in PD-1/PD-L1 humanized C57BL/6 mouse assessed as increase in proportion of CD3+/CD8+ T cells at 50 mg/kg, IG QD administered for 15 days by flow cytometry analysis; format: functional, organism-based; conditions: time 15.0 day
MC-38 [26] = assay: Antitumor activity against mouse MC38 cells expressing hPD-L1 implanted in PD-1/PD-L1 humanized C57BL/6 mouse assessed as upregulation of CXCR3 mRNA expression at 50 mg/kg, IG QD administered for 15 days by RT-PCR analysis; format: functional, organism-based; conditions: time 15.0 day
MC-38 [27] = assay: Antitumor activity against mouse MC38 cells expressing hPD-L1 implanted in PD-1/PD-L1 humanized C57BL/6 mouse assessed as upregulation of CXCL10 mRNA expression at 50 mg/kg, IG QD administered for 15 days by RT-PCR analysis; format: functional, organism-based; conditions: time 15.0 day
MC-38 [28] = assay: Antitumor activity against mouse MC38 cells expressing hPD-L1 implanted in PD-1/PD-L1 humanized C57BL/6 mouse assessed as upregulation of granzyme B expression at 50 mg/kg, IG QD administered for 15 days by immunohistochemistry analysis; format: functional, organism-based; conditions: time 15.0 day
MC-38 [29] = assay: Antitumor activity against mouse MC38 cells expressing hPD-L1 implanted in PD-1/PD-L1 humanized C57BL/6 mouse assessed as upregulation of perforin expression at 50 mg/kg, IG QD administered for 15 days by immunohistochemistry analysis; format: functional, organism-based; conditions: time 15.0 day
[30] = Toxicity in PD-1/PD-L1 humanized C57BL/6 mouse implanted with mouse MC38 cells expressing hPD-L1 assessed as change in heart morphology at 50 mg/kg, IG QD administered for 15 days by H and E staining based inverted fluorescent microscopic assay; format: organism-based, MC-38; conditions: in vivo, po, 360 h, time 15 day
[31] = Toxicity in PD-1/PD-L1 humanized C57BL/6 mouse implanted with mouse MC38 cells expressing hPD-L1 assessed as change in liver morphology at 50 mg/kg, IG QD administered for 15 days by H and E staining based inverted fluorescent microscopic assay; format: organism-based, MC-38; conditions: in vivo, po, 360 h, time 15 day
[32] = Toxicity in PD-1/PD-L1 humanized C57BL/6 mouse implanted with mouse MC38 cells expressing hPD-L1 assessed as hepatotoxicity at 50 mg/kg, IG QD administered for 15 days; format: organism-based, MC-38; conditions: in vivo, po, 360 h, time 15 day
[33] = Toxicity in PD-1/PD-L1 humanized C57BL/6 mouse implanted with mouse MC38 cells expressing hPD-L1 assessed as nephrotoxicity at 50 mg/kg, IG QD administered for 15 days; format: organism-based, MC-38; conditions: in vivo, po, 360 h, time 15 day

## N#Cc1cncc(COc2cc(OCc3cccc(-c4ccc5c(c4)OCCO5)c3C(F)F)ccc2CNCCO)c1
HCC827 [1]
  Activity: 40.4%
HCC827 [2]
  Activity: 51.7%
HCC827 [3]
  Activity: 59.6%
HCC827 [4]
  Activity: 71.2%
MDA-MB-231 [5]
  Activity: 40.6%
MDA-MB-231 [6]
  Activity: 45.9%
MDA-MB-231 [7]
  Activity: 57.1%
MDA-MB-231 [8]
  Activity: 64%
A549 [9]
  Activity: inactive
HCC827 [10]
  Activity: inactive
A549 [11]
  Activity: inactive
Jurkat
  Activity: inactive
[12]
  AUC(0-t) at 48 h: 12800 ng·h/mL
[13]
  AUC(0-inf): 13900 ng·h/mL
[14]
  Tmax: 7.8 min
[15]
  Vz: 10.1 L/kg
[16]
  AUC(0-t) at 48 h: 41800 ng·h/mL
[17]
  AUC(0-inf): 42000 ng·h/mL
[18]
  Cmax: 13500 ng/mL
[19]
  Tmax: 2.38 h
[20]
  t1/2: 5.52 h
[21]
  Vz: 31.76 L/kg
[22]
  bioavailability: 65.3%
MC-38 [23]
  inhibition in vivo at 50 mg/kg: 57.3%
[24]
  Activity: Non-Toxic
MC-38 [25]
  Activity: Active
MC-38 [26]
  Activity: Active
MC-38 [27]
  Activity: Active
MC-38 [28]
  Activity: Active
MC-38 [29]
  Activity: Active
[30]
  Activity: Non-Toxic
[31]
  Activity: Non-Toxic
[32]
  Activity: Non-Toxic
[33]
  Activity: Non-Toxic
